Source: PubChem BioAssay AID2060903 (Molecular Pharmacology Branch, DTP, NCI, 2025)

Tested on: 377384-186-R-J1-PDC complex spheroid viability
Test: Anticancer human tumor 377384-186-R-J1-PDC patient-derived pancreatic carcinoma cell line growth inhibition [RAS]
Conditions: for IC50: curve of first compound; for viability, T/C: stronger effect = lower value
In short: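 Tumour cells grown as complex spheroids with HUVEC endothelial cells and mesenchymal stem cells, treated with RAS pathway inhibitor combinations. Each agent spans half-log steps from near clinical Cmax, or 10 microM where Cmax is unknown.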

[1] = second compound 0.000949 µM, first compound 0.0316 µM
[2] = second compound 0.000949 µM, first compound 0.1 µM
[3] = second compound 0.000949 µM, first compound 0.316 µM
[4] = second compound 0.000949 µM, first compound 1 µM
[5] = second compound 0.000949 µM, first compound 3.16 µM
[6] = second compound 0.000949 µM, first compound 10 µM
[7] = second compound 0.003 µM, first compound 0.0316 µM
[8] = second compound 0.003 µM, first compound 0.1 µM
[9] = second compound 0.003 µM, first compound 0.316 µM
[10] = second compound 0.003 µM, first compound 1 µM
[11] = second compound 0.003 µM, first compound 3.16 µM
[12] = second compound 0.003 µM, first compound 10 µM
[13] = second compound 0.00949 µM, first compound 0.0316 µM
[14] = second compound 0.00949 µM, first compound 0.1 µM
[15] = second compound 0.00949 µM, first compound 0.316 µM
[16] = second compound 0.00949 µM, first compound 1 µM
[17] = second compound 0.00949 µM, first compound 3.16 µM
[18] = second compound 0.00949 µM, first compound 10 µM
[19] = second compound 0.03 µM, first compound 0.0316 µM
[20] = second compound 0.03 µM, first compound 0.1 µM
[21] = second compound 0.03 µM, first compound 0.316 µM
[22] = second compound 0.03 µM, first compound 1 µM
[23] = second compound 0.03 µM, first compound 3.16 µM
[24] = second compound 0.03 µM, first compound 10 µM
[25] = second compound 0.0949 µM, first compound 0.0316 µM
[26] = second compound 0.0949 µM, first compound 0.1 µM
[27] = second compound 0.0949 µM, first compound 0.316 µM
[28] = second compound 0.0949 µM, first compound 1 µM
[29] = second compound 0.0949 µM, first compound 3.16 µM
[30] = second compound 0.0949 µM, first compound 10 µM
[31] = second compound 0.3 µM, first compound 0.0316 µM
[32] = second compound 0.3 µM, first compound 0.1 µM
[33] = second compound 0.3 µM, first compound 0.316 µM
[34] = second compound 0.3 µM, first compound 1 µM
[35] = second compound 0.3 µM, first compound 3.16 µM
[36] = second compound 0.3 µM, first compound 10 µM
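Further: spheroids exposed to compounds for seven days before readout.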

CC1(O)CCCC1n1c(=O)c(C(F)F)cc2cnc(NC3CCN(S(C)(=O)=O)CC3)nc21 (centres undefined) + CCn1c(-c2cccnc2C(C)OC)c2c3cc(ccc31)N1CCOC(CC(NC(=O)C(C(C)C)N(C)C(=O)C3(F)CCN(C(=O)C#CC(C)(C)N(C)C)CC3)C(=O)N3CCCC(N3)C(=O)OCC(C)(C)C2)C1
IC50 (second compound 0.000949 µM): 91.3 nM
IC50 (second compound 0.003 µM): 105 nM
IC50 (second compound 0.00949 µM): 122 nM
IC50 (second compound 0.03 µM): 111 nM
IC50 (second compound 0.0949 µM): 78.5 nM
IC50 (second compound 0.3 µM): 62.8 nM
viability, T/C [1]: 79.6%
viability, T/C [2]: 46.6%
viability, T/C [3]: 28.9%
viability, T/C [4]: 28.6%
viability, T/C [5]: 35.1%
viability, T/C [6]: 9.26%
viability, T/C [7]: 76.8%
viability, T/C [8]: 52.7%
viability, T/C [9]: 28.8%
viability, T/C [10]: 26.6%
viability, T/C [11]: 34.8%
viability, T/C [12]: 8.79%
viability, T/C [13]: 84.6%
viability, T/C [14]: 55.6%
viability, T/C [15]: 27%
viability, T/C [16]: 29.7%
viability, T/C [17]: 36%
viability, T/C [18]: 7.91%
viability, T/C [19]: 67.4%
viability, T/C [20]: 52.6%
viability, T/C [21]: 24.9%
viability, T/C [22]: 21.5%
viability, T/C [23]: 34.7%
viability, T/C [24]: 7.53%
viability, T/C [25]: 71.3%
viability, T/C [26]: 46.5%
viability, T/C [27]: 23.9%
viability, T/C [28]: 22.2%
viability, T/C [29]: 33.4%
viability, T/C [30]: 6.19%
viability, T/C [31]: 68%
viability, T/C [32]: 37.7%
viability, T/C [33]: 18.6%
viability, T/C [34]: 22.7%
viability, T/C [35]: 34.7%
viability, T/C [36]: 5.35%

CCC(CC)c1cc(NC2CCC(N)C2)n2nccc2n1 (centres undefined) + CCn1c(-c2cccnc2C(C)OC)c2c3cc(ccc31)N1CCOC(CC(NC(=O)C(C(C)C)N(C)C(=O)C3(F)CCN(C(=O)C#CC(C)(C)N(C)C)CC3)C(=O)N3CCCC(N3)C(=O)OCC(C)(C)C2)C1
IC50 (second compound 0.000949 µM): 1720 nM
IC50 (second compound 0.003 µM): 1580 nM
IC50 (second compound 0.00949 µM): 1600 nM
IC50 (second compound 0.03 µM): 1540 nM
IC50 (second compound 0.0949 µM): 1230 nM
IC50 (second compound 0.3 µM): 851 nM
viability, T/C [1]: 101%
viability, T/C [2]: 96.9%
viability, T/C [3]: 115%
viability, T/C [4]: 91.9%
viability, T/C [5]: 2.57%
viability, T/C [6]: 3.88%
viability, T/C [7]: 109%
viability, T/C [8]: 115%
viability, T/C [9]: 108%
viability, T/C [10]: 81%
viability, T/C [11]: 2.93%
viability, T/C [12]: 3.96%
viability, T/C [13]: 90.4%
viability, T/C [14]: 114%
viability, T/C [15]: 120%
viability, T/C [16]: 82.3%
viability, T/C [17]: 3.02%
viability, T/C [18]: 4.29%
viability, T/C [19]: 104%
viability, T/C [20]: 99%
viability, T/C [21]: 107%
viability, T/C [22]: 77.6%
viability, T/C [23]: 3.09%
viability, T/C [24]: 4.72%
viability, T/C [25]: 90.8%
viability, T/C [26]: 91.5%
viability, T/C [27]: 95.8%
viability, T/C [28]: 60.1%
viability, T/C [29]: 3.31%
viability, T/C [30]: 4.2%
viability, T/C [31]: 94%
viability, T/C [32]: 86.1%
viability, T/C [33]: 86.3%
viability, T/C [34]: 44.2%
viability, T/C [35]: 3.73%
viability, T/C [36]: 3.93%
